# Measured values published in ChEMBL document CHEMBL1125198, “Synthesis, ligand binding, QSAR, and CoMFA study of 3 beta-(p-substituted phenyl)tropane-2 beta-carboxylic acid methyl esters” (J Med Chem, 1991).
# Target: Sodium-dependent dopamine transporter (Rattus norvegicus, UniProt P23977)
# Experiment: Affinity against cocaine binding site of dopamine transporter in rat striatum using [3H]2b as radioligand.
# Format: tissue-based
# Chain of Sodium-dependent dopamine transporter (P23977 whole entry): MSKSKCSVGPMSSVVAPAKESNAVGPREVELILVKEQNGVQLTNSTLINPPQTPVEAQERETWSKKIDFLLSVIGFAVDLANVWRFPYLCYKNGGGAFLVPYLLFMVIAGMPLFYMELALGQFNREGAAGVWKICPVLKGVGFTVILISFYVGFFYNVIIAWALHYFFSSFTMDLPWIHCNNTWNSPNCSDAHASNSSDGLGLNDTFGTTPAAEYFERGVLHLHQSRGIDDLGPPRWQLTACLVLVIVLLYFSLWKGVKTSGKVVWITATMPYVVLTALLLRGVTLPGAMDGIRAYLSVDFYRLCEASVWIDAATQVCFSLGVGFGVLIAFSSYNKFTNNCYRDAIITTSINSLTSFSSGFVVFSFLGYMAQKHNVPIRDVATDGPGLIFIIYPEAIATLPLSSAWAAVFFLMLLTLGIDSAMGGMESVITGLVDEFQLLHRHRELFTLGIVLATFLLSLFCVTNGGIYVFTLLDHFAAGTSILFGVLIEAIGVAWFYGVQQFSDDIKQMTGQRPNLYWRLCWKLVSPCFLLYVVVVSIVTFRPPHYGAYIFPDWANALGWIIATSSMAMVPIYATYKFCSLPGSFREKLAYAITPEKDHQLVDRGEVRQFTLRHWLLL
row,Compound,IC50 [nM]
1,COC(=O)[C@@H]1C2CC[C@H](C[C@@H]1c1ccccc1)N2C,23
2,COC(=O)[C@@H]1C2CC[C@H](C[C@@H]1c1cccs1)N2C,257
3,COC(=O)[C@@H]1C2CC[C@H](C[C@@H]1c1ccc(N=[N+]=[N-])cc1)N2C,2.12
4,CCOC(=O)Nc1ccc([C@H]2C[C@H]3CCC([C@H]2C(=O)OC)N3C)cc1,316
5,CCC(=O)Nc1ccc([C@H]2C[C@H]3CCC([C@H]2C(=O)OC)N3C)cc1,68
6,COC(=O)[C@@H]1C2CC[C@H](C[C@@H]1c1ccc(NC(C)=O)cc1)N2C,64.2
7,COC(=O)C1C2CC[C@H](C[C@H]1c1ccc(Br)cc1)N2C (some centres not stated),1.81
8,COC(=O)[C@@H]1C2CC[C@H](C[C@@H]1c1ccc(C(F)(F)F)cc1)N2C,13.1
9,COC(=O)C1C2CC[C@H](C[C@H]1c1ccc(C)cc1)N2C (some centres not stated),1.71
10,COC(=O)C1C2CC[C@H](C[C@@H]1c1ccc(I)cc1)N2C (some centres not stated),1.26
11,COC(=O)[C@@H]1C2CC[C@H](C[C@@H]1c1ccc(N)cc1)N2C,24.8
12,COC(=O)C1C2CC[C@H](C[C@@H]1c1ccc(Cl)cc1)N2C (some centres not stated),1.17
